US9962383B2, “Compounds, compositions and methods of agelastatin alkaloids” (Massachusetts Institute of Technology, priority 2013, dated 2018)
“Also recorded” adds a separate entry of the source. Where two headings read alike, the source gives them in different places.

What was measured:
HeLa = assay: 48-hour IC50 by SRB, HeLa cervical carcinoma cells; type: cell-based, human
Protocol: (§1) Cells were grown in media supplemented with fetal bovine serum (FBS) and antibiotics (100 μg/mL penicillin and 100 U/mL streptomycin). […] Cells were incubated at 37° C. in a 5% CO2, 95% humidity atmosphere.
(§2) Adherent cells (HeLa, A549, BT549, and IMR90) were added into 96-well plates (5,000 cells/well for HeLa cell line; 2,000 cells/well for A549, BT549, and IMR90 cell lines) in 100 μL media and were allowed to adhere for 2-3 hours. Compounds were solubilized in DMSO as 100× stocks, added directly to the cells (100 μL final volume), and tested over a range of concentrations (1 nM to 10 μM) in triplicate (1% DMSO final) on a half-log scale. DMSO and cell-free wells served as the live and dead control, respectively. […] Briefly, media was removed from the plate, and cells were fixed by the addition of 100 μL cold 10% trichloroacetic acid in water. After incubating at 4° C. for 1 h, the plates were washed in water and allowed to dry. Sulforhordamine B was added as a 0.057% solution in 1% acetic acid (100 μL), and the plates were incubated at room temperature for 30 min, washed in 1% acetic acid, and allowed to dry. […] IC50 values were determined from three or more independent experiments using TableCurve (San Jose, Calif.).

BT549 = assay: 48-hour IC50 by SRB, BT549 breast carcinoma cells; type: cell-based, human
Protocol: as §1, §2

U-937 = assay: 48-hour IC50 by MTS, U-937 lymphoma cells; type: cell-based, human
Protocol: as §1
(§3) In a 96-well plate, compounds were pre-added as DMSO stocks (1% final) in triplicate to achieve final concentrations of 1 nM to 10 μM on a half log scale. DMSO and cell-free wells served as the live and dead control, respectively. […] IC50 values were determined from three or more independent experiments using TableCurve (San Jose, Calif.).

A549 = assay: 48-hour IC50 by SRB, A549 non-small cell lung carcinoma cells; type: cell-based, human
Protocol: as §1, §2

[1] = system: human cell lines (U-937, HeLa, A549, BT549, IMR90); assay: Ability to induce cell death in the panel of five human cell lines (Table 3); type: cell-based; settings: for activity (ability to induce cell death) in words: 48-hour exposure, 1 nM to 10 μM, cell lines of Table 3; for reduction in anticancer potency relative to the compared agelastatin: (−)-2 vs (−)-1, (−)-6 vs (−)-4, D (4) and E (5) vs A (1), Table 3 data
Protocol: Six (−)-agelastatins along with eight closely related derivatives prepared in the above examples were tested (Table 3). The six (−)-agelastatin alkaloids (1-6, respectively), (−)-O-methyl-di-epi-agelastatin A (50), (−)-dehydroagelastatin A (51), (−)-di-epi-agelastatin C (52), (+)-O-methyl-pre-agelastatin A and D (39 and 53, respectively), along with bicyclic pyrroles (+)-44, (+)-45, and triazone (+)-48 were tested for their ability to induce cell death in four human cancer cell lines (U-937, lymphoma; HeLa, cervical carcinoma; A549, non-small cell lung carcinoma; and BT549, breast carcinoma) and one immortalized normal human cell line (IMR90, lung fibroblasts) after a 48-hour exposure. […] Furthermore, enhanced activities in U-937 (20×) cell relative to the other cell lines (Table 3) were observed.
Adherent cells (HeLa, A549, BT549, and IMR90) were added into 96-well plates (5,000 cells/well for HeLa cell line; 2,000 cells/well for A549, BT549, and IMR90 cell lines) in 100 μL media and were allowed to adhere for 2-3 hours. Compounds were solubilized in DMSO as 100× stocks, added directly to the cells (100 μL final volume), and tested over a range of concentrations (1 nM to 10 μM) in triplicate (1% DMSO final) on a half-log scale. DMSO and cell-free wells served as the live and dead control, respectively. After 48 h of continuous exposure, the plates were evaluated using the SRB colorimetric assay as described previously (V. Vichai, K. Kirtikara, Nature Prot., 2006, 1, 1112). Briefly, media was removed from the plate, and cells were fixed by the addition of 100 μL cold 10% trichloroacetic acid in water. After incubating at 4° C. for 1 h, the plates were washed in water and allowed to dry. Sulforhordamine B was added as a 0.057% solution in 1% acetic acid (100 μL), and the plates were incubated at room temperature for 30 min, washed in 1% acetic acid, and allowed to dry. The dye was solubilized by adding 10 mM Tris base solution (pH 10.5, 200 μL) and incubating at room temperature for 30 min Plates were read at λ=510 nm. IC50 values were determined from three or more independent experiments using TableCurve (San Jose, Calif.).
In a 96-well plate, compounds were pre-added as DMSO stocks (1% final) in triplicate to achieve final concentrations of 1 nM to 10 μM on a half log scale. DMSO and cell-free wells served as the live and dead control, respectively. Suspension cells (U-937, CEM, CA46, Daudi, HL-60, and Jurkat; 10,000 cells/well) cells were distributed in 100 μL media to the compound-containing plate. After 48 h, cell viability was assessed by adding 20 μL of a PMS/MTS solution (A. H. Cory, T. C. Owen, J. A. Barltrop, J. G. Cory, Cancer Commun., 1991, 3, 207) to each well, allowing the dye to develop at 37° C. until the live control had processed MTS, and reading the absorbance at λ=490 nm. IC50 values were determined from three or more independent experiments using TableCurve (San Jose, Calif.).

IMR90 = assay: 48-hour IC50 by SRB, IMR90  lung fibroblasts; type: cell-based, human
Protocol: as §1, §2

HL-60 = assay: 48-hour IC50 by MTS, HL-60 acute promyelocytic leukemia cells; type: cell-based, human
Protocol: as §1, §3

Jurkat = assay: 48-hour IC50 by MTS, Jurkat acute T-cell leukemia cells; type: cell-based, human
Protocol: as §1, §3

Daudi = assay: 48-hour IC50 by MTS, Daudi Burkitt's lymphoma cells; type: cell-based, human
Protocol: as §1, §3

CEM = assay: 48-hour IC50 by MTS, CEM acute lymphoblastic leukemia cells; type: cell-based, human
Protocol: as §1, §3

CA46 = assay: 48-hour IC50 by MTS, CA46 Burkitt's lymphoma cells; type: cell-based, human
Protocol: as §1, §3

U-937 cells = assay: Apoptosis in U-937 cells with Annexin V-FITC and propidium iodide; type: cell-based, human; settings: 21 hours, flow cytometry
Protocol: FIG. 3. […] Analysis of phosphatidylserine exposure and propidium iodide inclusion at 21 hours in U-937 cells. Compounds were tested at indicated concentrations and STS was used as a positive control for apoptosis. Samples were analyzed by flow cytometry for the relative timing of phosphatidylserine exposure relative to PI inclusion. FITC=fluorescein isothiocyanate; PI=propidium iodide; STS=staurosporine.
DMSO stocks of compounds were added to a 24-well plate in singlicate (0.2% DMSO final). […] Following treatment, the cell suspensions were transferred to flow cytometry tubes and pelleted (500 g, 3 min). The media was removed by aspiration, and cells were resuspended in 200 μL AnnV binding buffer (10 mM HEPES, pH 7.4, 140 mM NaCl, 2.5 mM CaCl2) with 5 μg/mL PI and 1:90 dilution of AnnV. Samples were analyzed using flow cytometry.

tubulin dynamics = assay: Tubulin microscopy with HeLa cells; type: cell-based, human; settings: 16 hours, confocal microscopy
Protocol: HeLa cells were treated with compound for 16 hours, fixed, stained, and visualized using confocal microscopy.
Round, 1.5 mm coverslips (No. 1.5) were sterilized with ultraviolet light and placed in a 12-well plate. HeLa cells (100,000 cells/well) were added and allowed to adhere for eight hours. Compounds were then added as DMSO stocks to achieve a final DMSO concentration of 1%, and the plates were returned to the incubator for 16 hours.
Following incubation, the media was removed, and the coverslips were fixed with 0.5 mL Microtubulin Stabilizing Buffer (MTSB, 80 mM PIPES, pH 6.8, 1 mM MgCl2, 5 mM EGTA, 0.5% TX-100)+0.5% glutaraldehyde for 10 minutes at room temperature, after which the fixative was removed and the sample was quenched with the addition of 0.5 mL of freshly-prepared 1 mg/mL NaBH4 in PBS. After a 5 min incubation, the solution was removed by aspiration and the coverslips were washed with PBS.
Coverslips were transferred to parafilm-lined culture dishes (cell-side up), and 40 μL of 50 μg/mL RNase A in Antibody Diluting Solution (AbDil, PBS, pH 7.4, 0.2% TX-100, 2% BSA, 0.1% NaN3) with 1:50 dilution of anti-α-tubulin-FITC antibody was added to all samples. The samples were allowed to incubate at room temperature in the dark for 2.5 hours, after which the coverslips were washed three times with PBS+0.1% TX-100. […]

synchronized U-937 cells = assay: Cell cycle arrest in thymidine-synchronized U-937 cells; type: cell-based, human; settings: 16 hours, PI, flow cytometry
Protocol: Samples were fixed, treated with an RNAse, stained with PI, and analyzed by flow cytometry. Taxol, a microtubule stabilizer, was used as a positive control. Error bars represent standard deviation of the mean, n=3. * p<0.01. PI=propidium iodide.
U-937 cells were split to 50% confluency (250,000 cells/mL) and treated with 2 mM thymidine for 10 hours. The cells were then pelleted (500 g, 3 minutes) and washed with PBS before being resuspended in thymidine-free media and allowed to recover for 13 hours. The cells were then re-blocked with 2 mM thymidine for 10 hours, and then washed with PBS as before and resuspended in media (250,000 cells/mL).
DMSO stocks of compounds were added to a 24-well plate in triplicate (0.2% DMSO final), after which 1 mL of the prepared cell suspension was added. Following a 16 h incubation, the cell suspensions were transferred to 2 mL tubes and pelleted (600 g, 3 min). The media was removed by aspiration, and the cells were fixed with 0.5 mL of ice cold 70% ethanol with vortexing. The samples were fully fixed at −20° C. for 3 hours. The samples were then pelleted (1000 g, 5 min) and the supernatant was removed via aspiration. […] Prior to reading, the samples were taken up in 150 μL of 50 μg/mL propidium iodide in PBS and transferred to flow cytometry tubes. Samples were analyzed based on whole, single cells.

[2] = system: procaspase-3 and PARP-1 cleavage; assay: Western blot analysis of procaspase-3 and PARP-1 cleavage in U-937 cells; type: cell-based, human; settings: 24 hours
Protocol: FIG. 2. […] Western blot analysis of procaspase-3 and PARP-1 cleavage at 24 hours in U-937 cells using β-actin as loading control. Compounds were tested at indicated concentrations and STS (10 nM); C3=caspase-3; PARP=poly(ADP-ribose) polymerase 1; PC3=procaspase-3; STS=staurosporine.

[3] = IMR90 immortalized lung fibroblasts

| Molecule | IC50 (HeLa) [µM] | IC50 (BT549) [µM] | IC50 (U-937) [µM] | IC50 (A549) [µM] | activity (ability to induce cell death) in words [1] | IC50 (IMR90; [3]) [µM] | IC50 (HL-60) [µM] | IC50 (Jurkat) [µM] | IC50 (Daudi) [µM] | IC50 (CEM) [µM] | IC50 (CA46) [µM] | further results |
| --- | --- | --- | --- | --- | --- | --- | --- | --- | --- | --- | --- | --- |
| COC1NC(=O)c2ccc(Br)n2C1Cc1c[nH]c(=O)[nH]1 (single isomer, unassigned; (+)) [(+)-53, (+)-O-methyl-pre-agelastatin D] | > 10 | > 10 | > 10 | > 10 | None | > 10 |  |  |  |  |  |  |
| CO[C@H]1NC(=O)c2ccc(Br)n2[C@@H]1Cc1c[nH]c(=O)n1C [(+)-39, (+)-O-methyl-pre-agelastatin A] |  |  |  |  | None |  |  |  |  |  |  | IC50 (HeLa; Homo sapiens): > 10 µM; IC50 (BT549; Homo sapiens, BT-549): > 10 µM; IC50 (U-937; Homo sapiens): > 10 µM; IC50 (A549; Homo sapiens): > 10 µM; IC50 (IMR90; Homo sapiens, IMR-90, IMR90 immortalized lung fibroblasts): > 10 µM |
| CN1C(=O)N[C@@]2(O)[C@@H]3NC(=O)c4ccc(Br)n4[C@@H]3C[C@@]12O [(−)-3, (−)-agelastatin C] | > 10 | > 10 | > 10 | > 10 |  | > 10 | > 10 | 5.31 ± 0.35 | 7.2 ± 2.9 | 2.1 ± 1.3 | > 10 | activity (ability to induce cell death) in words ([1]; listed as (−)-agelastatin C (3)): little activity at the concentrations examined; also recorded: abolishes activity |
| O=C1N[C@H]2[C@@H]3NC(=O)c4ccc(Br)n4[C@@H]3C[C@@]2(O)N1 [(−)-4, (−)-agelastatin D] | 1 ± 0.2 | 0.631 ± 0.082 | 0.24 ± 0.033 | 0.92 ± 0.16 |  | 2.75 ± 0.6 | 0.54 ± 0.12 | 0.21 ± 0.063 | 0.202 ± 0.015 | 0.074 ± 0.025 | 0.46 ± 0.24 | apoptosis (phosphatidylserine exposure and propidium iodide inclusion) (U-937 cells): induced dose-dependent apoptosis; effect on tubulin dynamics (tubulin dynamics): do not affect tubulin dynamics; reduction in anticancer potency relative to the compared agelastatin [1]: 1-5 fold; G2/M cell cycle arrest (synchronized U-937 cells): dose-dependent G2/M cell cycle arrest; activation of procaspase-3 to active caspase-3 and cleavage of PARP-1 [2]: dose-dependent activation |
| CO[C@@]12C[C@@H]3[C@@H](NC(=O)c4ccc(Br)n43)[C@@H]1NC(=O)N2C [(−)-5, (−)-agelastatin E] | 8.6 ± 0.81 | 6.9 ± 2.5 | 2.56 ± 0.13 | > 10 | relatively weaker activity | > 10 | 4.6 ± 3.6 | 1.5 ± 0.33 | 1.41 ± 0.53 | 0.83 ± 0.37 | 2.45 ± 0.95 | reduction in anticancer potency relative to the compared agelastatin [1]: > 10 fold |
| O=C1N[C@H]2[C@@H]3NC(=O)c4cc(Br)c(Br)n4[C@@H]3C[C@@]2(O)N1 [(−)-6, (−)-agelastatin F] | > 10 | > 10 | > 10 | > 10 | little activity at the concentrations examined | > 10 | > 10 | > 10 | > 10 | > 10 | > 10 |  |
| (−)-O-methyl-di-epi-agelastatin A [(−)-50] | > 10 | > 10 | > 10 | > 10 | None | > 10 |  |  |  |  |  |  |
| (−)-agelastatin B [(−)-2] | 4.8 ± 1.2 | 4.8 ± 1.1 | 1.06 ± 0.16 | > 10 | relatively weaker activity | > 10 | 2.4 ± 1 | 0.75 ± 0.44 | 0.46 ± 0.28 | 0.29 ± 0.2 | 1.07 ± 0.42 |  |
| (−)-dehydroagelastatin A [(−)-51] | > 10 | > 10 | > 10 | > 10 | None | > 10 |  |  |  |  |  |  |
| (−)-di-epi-agelastatin C [(−)-52] | > 10 | > 10 | > 10 | > 10 | None | > 10 |  |  |  |  |  |  |
